Earlier results as cited in patent publication US5846995A, “Substituted 1, 2, 3, 4-tetrahydro-2-dibenzofuranamines and 2-amino-cyclohepta (6, 7-B) Benzofurans” (priority 1997, dated 1998).

Settings: background

bioavailability: low bioavailability
SMILES: CNS(=O)(=O)Cc1ccc2[nH]cc(CCN(C)C)c2c1.O=C(O)CCC(=O)O [Compound I, 3-[2-(dimethylamino)ethyl]-N-methyl-1H-indole-5-methanesulfonamide butane-1,4-dioate (1:1)]
